Data published in US11944603B2, “Use of compound or medicinal derivative thereof in inhibiting AIM2 protein activity” (priority 2022, dated 2024).

Key:
mouse AIM2 protein = molecular target: T1, mouse AIM2 protein (Mus musculus, UniProt Q91VJ1); assay: Affinity by surface plasmon resonance (Biacore), amino coupling; conditions: mouse full-length AIM2 protein, SPR; read-out: binding constant
T1 construct: a mouse full-length AIM2 protein is expressed and purified firstly by pET28a vector; made in house
T1 sequence (Q91VJ1 1-354): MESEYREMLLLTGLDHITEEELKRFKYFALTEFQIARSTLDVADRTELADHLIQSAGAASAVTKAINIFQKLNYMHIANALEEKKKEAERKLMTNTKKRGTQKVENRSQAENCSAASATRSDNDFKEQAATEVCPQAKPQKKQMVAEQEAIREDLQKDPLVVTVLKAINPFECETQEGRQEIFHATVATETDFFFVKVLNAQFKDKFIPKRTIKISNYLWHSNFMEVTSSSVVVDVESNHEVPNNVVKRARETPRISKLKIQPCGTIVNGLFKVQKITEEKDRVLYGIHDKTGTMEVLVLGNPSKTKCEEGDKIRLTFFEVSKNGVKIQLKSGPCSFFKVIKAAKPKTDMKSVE
Method: In the embodiment of the disclosure, the affinity between SLD-1 and mouse AIM2 protein is detected. Specifically, a mouse full-length AIM2 protein is expressed and purified firstly by pET28a vector, and then the affinity is determined by CMS chip amino coupling method by a surface plasmon resonance (SPR) method of Biacore.

[1] = tested on: T lymphocytes of TCRγ/CD3+ RORγt in mouse skin; assay: IMQ psoriasis mouse model: flow cytometry of skin lymphocytes; format: in vivo, C57/BL6 mice; conditions: 2.5 mg/kg, compared with IMQ mice without SLD-1
Method: (§1) Dimethyl sulfoxide (DMSO) is used to dissolve SLD-1 powder, the powder is weighed according to different dosage, then diluted with β-cyclodextrin, and a final concentration of DMSO shall not exceed 5%. The dose gradients of SLD-1 set are 0 mg/kg, 2.5 mg/kg, 5 mg/kg and 10 mg/kg respectively. Each mouse is calculated as 20 grams (g), and 0 mg, 0.05 mg, 0.1 mg and 0.2 mg of SLD-1 are administered respective mice every day.
(§2) Seven-week-old C57/BL6 mice are selected, fed and modeled in a […] (SPF) environment. The experimental groups are as follows: • (1) mouse skin smeared with IMQ and 0 mg/kg of SLD-1; • (2) mouse skin smeared with IMQ and 2.5mg/kg of SLD-1; • (3) mouse skin smeared with IMQ and 5 mg/kg of SLD-1; • (4) mouse skin smeared with IMQ and 10 mg/kg of SLD-1; • (5) mouse skin smeared with Vaseline and 0 mg/kg of SLD-1; • (6) mouse skin smeared with Vaseline and 2.5mg/kg of SLD-1; • (7) mouse skin smeared with Vaseline and 5 mg/kg of SLD-1; and • (8) mouse skin smeared with Vaseline and 10 mg/kg of SLD-1.
Six mice in each group are shaved back hair to make a exposed skin reach 4 square centimeters. A start date of the experiment is set as day 0 and an end date is set as day 6. […] The mouse skins are scored every day, the mice are sacrificed on day 6, and skin tissue is taken for a series of tests. […]

[2] = tested on: AIM2 downstream protein in HaCaT cells; assay: HaCaT cell model, expression of AIM2 downstream protein; format: cell-based; conditions: 25 uM
Method: (§3) (1) A positive control (PC), a negative control (NC) and respective treatment groups are set. An inclusion of Lip3000 (Lipofectamine™ 3000 Transfection Reagent) and OligodA-T (OligodA-T:Lip3000:P3000=1:1:25, a concentration of OligodA-T is 1 ug/mL) is used to transfect HaCat cells, and only the same amount of transfection reagent (Lip3000:P3000=1:1) is added in NC group. The HaCat cells are co-transfected with an inclusion of Lip3000-OligodA-T at gradient doses (0.1 uM, 1 uM, 5 uM, 10 uM and 25 uM) of SLD-1 in the respective treatment groups.
(5) Moreover, the expression of AIM2 downstream protein in the HaCaT cells treated with 25 uM SLD-1 is detected, and results are shown in FIG. 12.

[3] = tested on: AIM2 pathway in HaCaT cells; assay: HaCaT cell model, real-time fluorescence PCR of IL-1β and AIM2 pathway genes; format: cell-based; conditions: 25 uM
Method: as §3
(2) The positive control (PC), negative control (NC) and the respective treatment groups are incubated in a cell incubator containing 5% CO2 at 37° C. for 24 hours, and the cells are collected for real-time fluorescence PCR detection to observe the effect of different doses of inhibitors on the activation of AIM2 pathway in the HaCaT cells.
(4) In addition, the effect of 25 uM of SLD-1 on the transcription level of genes in the AIM2 pathway of the HaCat cell model is detected, and results are shown in FIG. 11.

IMQ mice = assay: IMQ psoriasis mouse model: PASI scores, skin phenotype, skin pathology; format: in vivo, C57/BL6 mice
Method: as §1, §2
(§4) Six mice in each group are shaved back hair to make a exposed skin reach 4 square centimeters. A start date of the experiment is set as day 0 and an end date is set as day 6. From day 0 to Day 5, 100 μL medicine solution is taken every day and evenly smeared mouse skin to absorb. From day 2 to day 5, each mouse 62.5 mg IMQ is smeared every day after 20 minutes of SLD-1 inhibitor. The mouse skins are scored every day, the mice are sacrificed on day 6, and skin tissue is taken for a series of tests.
PASI scores, skin phenotypes and skin pathological phenotypes of the above IMQ modeled mice are shown in FIG. 13, FIG. 14 and FIG. 15 respectively.

[4] = tested on: AIM2 pathway in mouse skin; assay: IMQ psoriasis mouse model: AIM2 pathway gene transcription and protein levels in skin; format: in vivo, C57/BL6 mice
Method: as §1, §2, §4

[5] = tested on: IL-1β mRNA in HaCaT cells; assay: Screening in HaCaT cell model stimulated by OligodA-T, real-time PCR of IL-1β mRNA; format: cell-based; conditions: 10 uM, 24 hours, OligodA-T 1 ug/mL, among 100 compounds
Method: The protective ability of 100 compounds screened above against cell pyroptosis of HaCaT cells stimulated by OligodA-T is evaluated by the real-time fluorescent quantitative polymerase chain reaction (PCR) detection of IL-1β mRNA in the stimulated cells.
1. Positive control (PC) and negative control (NC) are set in the experimental group. An inclusion of Lip3000 (Lipofectamine™ 3000 Transfection Reagent) and OligodA-T (OligodA-T:Lip3000:P3000=1:1:25, a concentration of OligodA-T is 1 microgram per […] (ug/mL)) is used to transfect HaCat cells. Lip3000-OligodA-T and 10 micromoles per liter (uM) small molecule inhibitor are used to transfect the HaCat cells in each treatment group, and only the same amount of transfection reagent (Lip3000:P3000=1:1) is added in NC group.
2. Each experimental group is incubated in a cell incubator containing 5% CO2 for 24 hours at 37° C., and the cells are collected for real-time fluorescence PCR detection.

human AIM2 protein = molecular target: T2, human AIM2 protein (Homo sapiens, UniProt O14862); assay: Affinity by surface-plasmon resonance (Biacore), amino coupling; conditions: human full-length AIM2 protein, SPR; read-out: binding constant
T2 construct: a human full-length AIM2 protein is expressed and purified firstly by pET28a vector; made in house
T2 sequence (O14862 1-343): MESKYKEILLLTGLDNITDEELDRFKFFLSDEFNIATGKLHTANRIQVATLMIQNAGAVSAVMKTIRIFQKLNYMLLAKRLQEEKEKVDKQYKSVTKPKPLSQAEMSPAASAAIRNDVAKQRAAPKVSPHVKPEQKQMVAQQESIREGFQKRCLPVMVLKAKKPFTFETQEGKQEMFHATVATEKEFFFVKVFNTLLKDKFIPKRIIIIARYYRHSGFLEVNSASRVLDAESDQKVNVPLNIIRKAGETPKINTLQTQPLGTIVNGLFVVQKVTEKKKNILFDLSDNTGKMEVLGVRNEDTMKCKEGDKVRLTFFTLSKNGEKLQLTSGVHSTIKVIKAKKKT
Method: In the embodiment of the disclosure, the affinity between SLD-1 and human AIM2 protein is detected. Specifically, a human full-length AIM2 protein is expressed and purified firstly by pET28a vector, and then the affinity is determined by CMS chip amino-coupling method through a surface-plasmon resonance (SPR) method of Biacore.

HaCaT cells = assay: HaCaT cell model, cell state under microscope (pyroptosis); format: cell-based; conditions: 25 uM, microscope 100 times and 400 times
Method: as §3
(3) In this situation, a cell state of 25 uM gradient is observed under microscope fields of 100 times and 400 times, and results are shown in FIG. 10.

`Cn1c(=O)n(C)c2cc(C(O)COc3ccc(CNC4C5CC6CC(C5)CC4C6)cc3)ccc21` (stereo not drawn) [SLD-1] was tested. Which Kd (mouse AIM2 protein) did it give?
Its Kd is 10.3 µM.

And the “proportion of TCRγ/CD3+ RORγt in skin lymphocytes” value [1]?
Its value is “significantly lower”.

And the “AIM2 downstream procaspase-1 and proIL-1β expression” value [2]?
The value was “no effect”.

What about the “content of caspase-1p20 and IL-1βp17” value [2] of the same molecule?
The value was “reduces the content of caspase-1p20 and IL-1βp17”.

And the “transcription of major genes in the AIM2 pathway compared with the PC” value [3]?
The value was “significantly decreased”.

And the “IL-1β transcription levels compared to the PC” value ([3]; of gradient 0.1, 1, 5, 10, 25 uM, 24 hours)?
Its value is “reduced IL-β transcription levels in the HaCat cells the most”.

And the “reduction effect on inflammatory phenotype of IMQ mice” value (IMQ mice; 2.5 mg/kg smeared on skin)?
Its value is “the most significant”.

What about the “reduction effect on inflammatory phenotype of IMQ mice, comparison of doses” value (IMQ mice; 5 mg/kg and 10 mg/kg smeared on skin) of the same molecule?
The value was “no difference between 5 mg/kg and 10 mg/kg”.

And the “inflammatory phenotype of IMQ mice (PASI, skin phenotype, pathology)” value (IMQ mice; three doses 2.5, 5, 10 mg/kg smeared on skin, day 0 to day 5)?
Its value is “reduced the inflammatory phenotype of IMQ mice to varying degrees”.

What about the “AIM2 downstream procaspase-1 and proil-1β in the mouse skin” value ([4]; 2.5 mg/kg) of the same molecule?
The value was “no effect”.

And the “content of caspase-1p20 and IL-1βp17 in the mouse skin” value ([4]; 2.5 mg/kg)?
Its value is “decreases the content of caspase-1p20 and IL-1βp17”.

What about the “transcription levels of AIM2 pathway genes in the mouse skin” value ([4]; respective groups) of the same molecule?
Its value is “no significant difference”.

And the “inhibitory effect on IL-1β mRNA compared with the positive control” value [5]?
Its value is “most significant inhibitory effect (p<0.0001)”.

What about the Kd (human AIM2 protein) of the same molecule?
The Kd was 10.3 µM.

And the “cell state (pyroptosis, density, adhesion)” value (HaCaT cells)?
Its value is “close to that of the NC, with very few transparent pyroptosis cells, a high cell density and a good adhesion”.
